From the supplement of paper PMC13207355

Tests used:
Conditions in all cases: exposure time: 72 h
E13 [1] = patient-derived glioblastoma stem cells of classical subtype; experiment: surviving fraction (nuclei count normalised to DMSO); higher = more cells surviving (less toxic)
E21 [2] = patient-derived glioblastoma stem cells of mesenchymal subtype; experiment: as above
E28 [3] = patient-derived glioblastoma stem cells of classical subtype; experiment: as above
E31 [4] = patient-derived glioblastoma stem cells of proneural subtype; experiment: as above
E34 [5] = patient-derived glioblastoma stem cells of proneural subtype; experiment: as above
E57 [6] = patient-derived glioblastoma stem cells of mesenchymal subtype; experiment: as above
FT3469 [7] = normal neural stem cell line; experiment: as above
E13 [8] = experiment: phenotypic distance (Euclidean, principal components) from DMSO controls (arbitrary units); higher = stronger morphological change
E21 [9] = experiment: as above
E28 [10] = experiment: as above
E31 [11] = experiment: as above
E34 [12] = experiment: as above
E57 [13] = experiment: as above
FT3469 [14] = experiment: as above
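Throughout, for phenotypic distance (Euclidean, principal components) from DMSO controls: cell Painting imaging in 384-well plates, CellProfiler features reduced to at least 20 principal components, Euclidean distance versus same-plate DMSO vehicle wells (0.1% v/v), median over six images per well.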
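Throughout, for surviving fraction (nuclei count normalised to DMSO): nuclei counted by high-content imaging of Hoechst-stained cells in laminin-coated 384-well plates, relative to 0.1% DMSO vehicle wells, with staurosporine as cell-death control.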

OCCN1C[C@H](O)[C@@H](O)[C@H](O)[C@H]1CO [Miglitol]
Conditions | phenotypic distance | surviving fraction
E13 [1], 4.11523 nM | – | 0.886
E13 [1], 12.34567901 nM | – | 0.888
E13 [1], 37.037 nM | – | 0.938
E13 [1], 111.1111111 nM | – | 0.955
E13 [1], 333.333 nM | – | 0.951
E13 [1], 1000 nM | – | 0.889
E13 [1], 3000 nM | – | 0.98
E13 [8], 4.11523 nM | 0.578 | –
E13 [8], 12.34567901 nM | 0.499 | –
E13 [8], 37.037 nM | 0.296 | –
E13 [8], 111.1111111 nM | 0.445 | –
E13 [8], 333.333 nM | 0.7 | –
E13 [8], 1000 nM | 0.441 | –
E13 [8], 3000 nM | 0.584 | –
E21 [2], 4.11523 nM | – | 0.916
E21 [2], 12.34567901 nM | – | 0.86
E21 [2], 37.037 nM | – | 0.996
E21 [2], 111.1111111 nM | – | 0.946
E21 [2], 333.333 nM | – | 0.949
E21 [2], 1000 nM | – | 0.914
E21 [2], 3000 nM | – | 0.993
E21 [9], 4.11523 nM | 0.913 | –
E21 [9], 12.34567901 nM | 0.734 | –
E21 [9], 37.037 nM | 0.73 | –
E21 [9], 111.1111111 nM | 0.986 | –
E21 [9], 333.333 nM | 0.413 | –
E21 [9], 1000 nM | 0.51 | –
E21 [9], 3000 nM | 0.737 | –
E28 [3], 4.11523 nM | – | 0.997
E28 [3], 12.34567901 nM | – | 0.913
E28 [3], 37.037 nM | – | 1.12
E28 [3], 111.1111111 nM | – | 0.877
E28 [3], 333.333 nM | – | 1.06
E28 [3], 1000 nM | – | 1.14
E28 [3], 3000 nM | – | 1.03
E28 [10], 4.11523 nM | 0.488 | –
E28 [10], 12.34567901 nM | 0.943 | –
E28 [10], 37.037 nM | 1.54 | –
E28 [10], 111.1111111 nM | 0.838 | –
E28 [10], 333.333 nM | 0.651 | –
E28 [10], 1000 nM | 0.777 | –
E28 [10], 3000 nM | 0.637 | –
E31 [4], 4.11523 nM | – | 0.768
E31 [4], 12.34567901 nM | – | 1.15
E31 [4], 37.037 nM | – | 0.954
E31 [4], 111.1111111 nM | – | 0.999
E31 [4], 333.333 nM | – | 1.01
E31 [4], 1000 nM | – | 1.17
E31 [4], 3000 nM | – | 0.956
E31 [11], 4.11523 nM | 0.64 | –
E31 [11], 12.34567901 nM | 0.762 | –
E31 [11], 37.037 nM | 0.853 | –
E31 [11], 111.1111111 nM | 0.501 | –
E31 [11], 333.333 nM | 0.613 | –
E31 [11], 1000 nM | 0.778 | –
E31 [11], 3000 nM | 0.647 | –
E34 [5], 4.11523 nM | – | 0.825
E34 [5], 12.34567901 nM | – | 1.07
E34 [5], 37.037 nM | – | 0.964
E34 [5], 111.1111111 nM | – | 1.17
E34 [5], 333.333 nM | – | 1.04
E34 [5], 1000 nM | – | 0.915
E34 [5], 3000 nM | – | 1.14
E34 [12], 4.11523 nM | 0.65 | –
E34 [12], 12.34567901 nM | 0.713 | –
E34 [12], 37.037 nM | 0.625 | –
E34 [12], 111.1111111 nM | 0.702 | –
E34 [12], 333.333 nM | 0.456 | –
E34 [12], 1000 nM | 0.679 | –
E34 [12], 3000 nM | 0.758 | –
E57 [6], 4.11523 nM | – | 1.03
E57 [6], 12.34567901 nM | – | 1.03
E57 [6], 37.037 nM | – | 1.06
E57 [6], 111.1111111 nM | – | 0.966
E57 [6], 333.333 nM | – | 0.955
E57 [6], 1000 nM | – | 0.997
E57 [6], 3000 nM | – | 1.1
E57 [13], 4.11523 nM | 0.469 | –
E57 [13], 12.34567901 nM | 0.849 | –
E57 [13], 37.037 nM | 0.936 | –
E57 [13], 111.1111111 nM | 0.643 | –
E57 [13], 333.333 nM | 0.643 | –
E57 [13], 1000 nM | 0.624 | –
E57 [13], 3000 nM | 0.981 | –
FT3469 [7], 4.11523 nM | – | 0.878
FT3469 [7], 12.34567901 nM | – | 0.954
FT3469 [7], 37.037 nM | – | 0.984
FT3469 [7], 111.1111111 nM | – | 0.963
FT3469 [7], 333.333 nM | – | 1.06
FT3469 [7], 1000 nM | – | 1.07
FT3469 [7], 3000 nM | – | 1.14
FT3469 [14], 4.11523 nM | 3.01 | –
FT3469 [14], 12.34567901 nM | 0.609 | –
FT3469 [14], 37.037 nM | 0.908 | –
FT3469 [14], 111.1111111 nM | 0.767 | –
FT3469 [14], 333.333 nM | 0.996 | –
FT3469 [14], 1000 nM | 0.816 | –
FT3469 [14], 3000 nM | 0.734 | –
